The source of these data is patent US12018278B2, “Methods for chemically induced lineage reprogramming” (BeiHao Stem Cell and Regenerative Medicine Research …, priority 2017, dated 2024).

The test system of data set [1] is induced TauEGFP-positive cells. The experiment in a line: Whole-cell patch clamp recordings on induced TauEGFP-positive neurons. In kind it is cell-based, mouse. The note with it: for spontaneous excitatory postsynaptic currents (EPSCs): 20 μM CNQX plus 50 μM AP5, after co-culturing with primary astrocytes. The method, then:
Whole-cell patch clamp recordings were performed as previously described (Li et al., Cell Stem Cell, 17:195-203 (2015)). The artificial cerebrospinal fluid extracellular solution contained (in mM) 141 NaCl, 2.5 KCl, 1.3 MgCl2, 2.4 CaCl2, 1.25 NaH2PO4, 10 glucose and 10 HEPES, the pH was adjusted to 7.4 with NaOH. Patch pipettes were pulled (˜5 MΩ tip resistance) with a P97 micropipette puller (Sutter Instruments) filled with internal pipette solution contained (in mM) 140 potassium gluconate, 1 CaCl2, 10 EGTA, 2 MgCl2, 5 Na2ATP, and 10 HEPES, the pH was adjusted to 7.4 with KOH. Patch-clamp recordings were taken using an EPC-10 amplifier (HEKA) with PatchMaster. Cell membrane potentials were held typically at −80 mV and depolarized to test potentials from −80 to +80 mV in 10 mV increments to record the sodium and potassium currents. The sample was 20 μs and sweep intervals were 2 s. For current-clamp recordings, a hyperpolarized current was injected into chemical neurons to membrane potentials around −70 mV. Action potentials were elicited by step-depolarized currents with sweep intervals of 3 s. The cells were held at 0 pA to record the resting membrane potentials. In current-clamp mode, the sample frequency was 25 kHz. Induced neurons identified by GFP were co-cultured with mouse primary astrocytes to record spontaneous excitatory postsynaptic currents (sEPSCs) or spontaneous inhibitory postsynaptic currents (sIPSCs). The induced neurons were held at a holding potential of −70 mV (close to the reversal potential of chloride) and 0 mV, respectively. The data were continuously digitized at 20 kHz. For neurotransmitter response, Glutamate (100 μM, Sigma-Aldrich) was dissolved in ACSF, loaded into a pipette, and puffed onto hciN cells using a picosprizer III (Parker Instrument) with 10 psi and […]. All recordings were conducted at room temperature.
(In general: Patch clamp records ionic current or voltage across a cell membrane.)

Data set [2] relates to mouse adult lung fibroblasts (MAFs). The experiment in a line: Induction of XEN-like cells from adult fibroblasts. It counts as cell-based. The note with it: vitamin C (50 μg/ml) and CH55 (1 μM) added together to stage 1 medium; 12 days' induction. The method, then:
Stage 1 culture medium preparation: KnockOut DMEM (Invitrogen) supplemented with 10% KSR (Invitrogen), 10% FBS (Pan-Biotech), 1% GlutaMAX™-I (Invitrogen), 1% NEAA (Invitrogen), 0.055 mM β-ME (Sigma), 1% penicillin-streptomycin (Invitrogen), 100 ng/ml bFGF (Origene) containing the small-molecule cocktail: 0.5 mM VPA, 2-4 μM TD114-2 or 20 μM CHIR, 10 μM 616452, 10 μM Tranylcypromine, 10-50 μM Forskolin, 0.05 μM AM580 and 5 μM EPZ004777 (VT6TFAE or VC6TFAE).

A further data set relates to CeXEN cells. The experiment in a line: Toxicity to CeXEN cells in stage 2 neural induction medium. The note with it: 50 μM. It counts as cell-based, mouse. On the procedure: CeXEN (chemically-derived eXEN) cells with TauEGFP reporter were derived from E3.5 blastocysts using stage 1 culture medium as previously reported (Zhao et al., Cell, 163:1678-1691 (2015)). Medium was changed every day and the cells were passaged at 1:20 to 1:30 every 3 days.
1. For chemical induction, CeXEN cells were plated at 50,000-100,000 cells per well of a 6-well plate (with gelatin-coated) in stage 1 medium (day 0).
2. On day2 or day3 until 70-80% confluence, cells were switched into stage 2 neural induction culture medium for 12-20 days and TauEGFP-positive cells were generated.
A relatively low initial cell density is beneficial for lineage induction from passaged CeXEN cells since the high proliferation rate of CeXEN cells. Considering that FSK used at high concentration 50 μM was toxic to CeXEN cells at stage 2, a concentration of 10-20 μM in neural induction culture medium on CeXEN cells is preferred.

In a further data set the test system is passaged XEN-like cells. The experiment in a line: Toxicity to passaged XEN-like cells in stage 2 neural induction medium. It counts as cell-based, mouse. The note with it: 50 μM. On the procedure:
For neural induction from passaged XEN-like cells, cells were plated at 50,000-100,000 cells per well of a 6-well plate (with gelatin-coated) in stage 1 medium (day 0). Until passaged cells become 70-80% confluence on day2 or day3, switch the XEN-like cells into stage 2 neural induction medium. After 12-20 days, TauEGFP-positive colonies emerged. Considering that FSK used at high concentration 50 μM was toxic to passaged XEN-like cells at stage 2, a concentration of 10-20 μM in neural induction culture medium on passaged XEN-like cells is preferred.

The test system of data set [3] is XEN-like cells. The experiment in a line: Stage 2 neural induction of TauEGFP-positive cells from XEN-like cells (FACS). In kind it is cell-based, mouse. As to conditions: 0.1 μM LDN193189 and 5 μM SB431542 added to FCD; not essential to induce neurons. On the procedure: On day 12, cells were switched into stage 2 neural specification medium. After 8-12 days induction by the stage 2 culture medium, TauEGFP-positive colonies were generated. The TauEGFP-positive colonies were further re-plated to co-culture with primary astrocytes or primary neurons for maturation.
The induced efficiency of the TauEGFP-positive cells was estimated using a FACS Calibur flow cytometer (Becton Dickinson), and the flow cytometry data were analyzed using FlowJo. For intracellular flow cytometry analyses, single-cell suspensions were stained with antibodies and analyzed using a BD FACSCalibur.

A further data set concerns XEN-like colonies. The data set can be described thus: Long-term passaging and expansion of XEN-like cells. In kind it is cell-based, mouse. The note with it: TD114-2 based culture condition; ratio 1:20-30 every 3-4 days. The source says:
Day 12 induced)(EN-like colonies (P0) were trypsinized from whole well and re-plated onto gelatin-coated culture plates at a ratio of 1:10-20 in stage 1 medium for the first passage. After the)(EN-like cells at Passage 1 become confluence, passage the cells at a ratio of 1:20-30 every 3-4 days in stage 1 medium. The XEN-like cells can be long term expanded at stage 1 medium for more than 20 passages with lineage specifying potentials.
For a single primary XEN-like colony passaging, feeder layers of mitomycin C-treated MEFs are needed. Pick up the a single primary XEN-like colony with 1 ml syringe, trypsinize for 5 min, and neutralize with stage 1 culture medium, then pipette up and down to obtain a single-cell suspension. Seed the cell suspension on feeder layers with stage 1 culture medium for further expansion. The subsequent passaging of XEN-like cells can be feeder-free.

The next data set deals with fibroblasts. The experiment in a line: Stage 1 chemical induction of XEN-like primary colonies from fibroblasts. It counts as cell-based, mouse. As to conditions: replacing CHIR99021 with TD114-2 in the seven-compound cocktail; XEN-like state not altered. On the procedure: Stage 1 culture medium preparation: KnockOut DMEM (Invitrogen) supplemented with 10% KSR (Invitrogen), 10% FBS (Pan-Biotech), 1% GlutaMAX™-I (Invitrogen), 1% NEAA (Invitrogen), 0.055 mM β-ME (Sigma), 1% penicillin-streptomycin (Invitrogen), 100 ng/ml bFGF (Origene) containing the small-molecule cocktail: 0.5 mM VPA, 2-4 μM TD114-2 or 20 μM CHIR, 10 μM 616452, 10 μM Tranylcypromine, 10-50 μM Forskolin, 0.05 μM AM580 and 5 μM EPZ004777 (VT6TFAE or VC6TFAE). For mouse adult lung fibroblasts (MAFs) induction, 1 μM CH55 and 50 μg/ml Vitamin C (VC) were added enhance the induction efficiency.
TauEGFP fibroblasts were prepared as previously reported (Li et al., Cell Stem Cell, 17:195-203 (2015)). Fibroblasts were seeded at a density of 30,000-50,000 cells per well of a 6-well plate or 300,000 cells per 100 mm dish (day −1) (Fibroblast medium−DMEM basal medium+10% FBS++beta-Me(0.055 mM)+1% PS). The culture plates or dishes were precoated with 0.1% gelatin.
The medium was changed to Stage 1 culture medium (Day 0). For stage 1 chemical reprogramming, cells were induced by the culture medium containing 0.5 mM VPA, 2-4 μM TD114-2 or 20 μM CHIR, 10 μM 616452, 10 μM Tranylcypromine, 10-50 μM Forskolin, 0.05 μM AM580 and 5 μM EPZ004777(VT6TFAE or VC6TFAE)) for 12 days. Culture medium was refreshed every 4 days during the inducing period. XEN-like colonies were formed at about day 6-8.

Data set [4] deals with XEN-like cells. The data set can be described thus: qRT-PCR of neural, fibroblast and XEN genes in the absence of single Stage 2 medium components. It counts as cell-based, mouse. The note with it: genes examined in the absence of the factor; FIG. 1F.

Regarding `NC(CCCP(=O)(O)O)C(=O)O` (stereo not shown) [AP5, 2-amino-5-phosphonovaleric acid], the “spontaneous excitatory postsynaptic currents (EPSCs)” value in data set [1] is “blocked”.
As to `CC(C)(C)c1cc(C(=O)/C=C/c2ccc(C(=O)O)cc2)cc(C(C)(C)C)c1` [CH55], the “efficiency of generating XEN-like cells from adult fibroblasts” value in data set [2] is given as “significantly improved”.
Consider `N#Cc1cc2[nH]c(=O)c(=O)[nH]c2cc1[N+](=O)[O-]` [CNQX, 6-cyano-1007-nitroquinoxaline-2,3-dione], for which the “spontaneous excitatory postsynaptic currents (EPSCs)” value in data set [1] is given as “blocked”.
As for `C=C[C@@]1(C)CC(=O)[C@]2(O)[C@@]3(C)[C@@H](O)CCC(C)(C)[C@@H]3[C@H](O)[C@H](OC(C)=O)[C@@]2(C)O1` [Forskolin], the “toxicity to CeXEN cells at stage 2” value in the data set with CeXEN cells is listed as “toxic”. Moreover, the “toxicity to passaged XEN-like cells at stage 2” value in the data set with passaged XEN-like cells is on record as “toxic”.
For `N[C@@H](CCC(=O)O)C(=O)O` [Glutamate], the “membrane currents on focal application” value in data set [1] (100 μM, focal application) is “induction of inward membrane currents”.
Take `c1ccc2c(-c3cnn4cc(-c5ccc(N6CCNCC6)cc5)cnc34)ccnc2c1` [LDN193189, 4-(6-(4-(piperazin-1-yl)phenyl)pyrazolo[1,5-a]pyrimidin-3-yl)quinolone]: the “effect on neuron induction efficiency in stage 2 medium” value in the data set with XEN-like cells [3] is recorded as “favorable to enhance the induction efficiency”.
Take `NC(=O)c1ccc(-c2nc(-c3ccc4c(c3)OCO4)c(-c3ccccn3)[nH]2)cc1` [SB431542, 4-[4-(1,3-benzodioxol-5-yl)-5-(2-pyridinyl)-1H-imidazol-2-yl]benzamide]: the “effect on neuron induction efficiency in stage 2 medium” value with XEN-like cells [3] is “favorable to enhance the induction efficiency”.
As for `O=C1NC(=O)C2=C1c1cn(c3ccccc13)CCOCCOCCOCCOCCn1cc2c2ccccc21` [TD114-2, 10,11,13,14,16,17,19,20,22,23-decahydro-9,4:24, 29-dimetheno-1H-dibenzo[n,t] pyrrolo[3,4-q] [1,4,7,10,13,22]-tetraoxadiazacyclotetracosine-31,33(32H) dione], the “long term expansion of XEN-like colonies, passages tested” value in the data set with XEN-like colonies is reported as “at least 20 passages”. The “yield of the primary colonies, enhancement” value in the data set on fibroblasts was determined as 3 fold.
Turning to `NC1=N[C@H](O)[C@H]2[C@H]3O[C@]4(O)O[C@@H]([C@@H](O)[C@@]2(N1)[C@@H]4O)[C@]3(O)CO` [TTX, tetrodotoxin], the “sodium currents (inward currents, voltage-clamp)” value in data set [1] was “blocked”.
With `O=C1O[C@H]([C@@H](O)CO)C(O)=C1O` [vitamin C], in data set [2], the “efficiency of generating XEN-like cells from adult fibroblasts” value is listed as “significantly improved”.

B1: GDNF: growth factor in Stage 2 neural induction medium, 20 ng/ml (protein, UniProt P39905 78-211, looked up)
Glial cell line-derived …: SPDKQMAVLPRRERNRQAAAANPENSRGKGRRGQRGKNRGCVLTAIHLNVTDLGLGYETKEELIFRYCSGSCDAAETTYDKILKNLSRNRRLVSDKVGQACCRPIAFDDDLSFLDDNLVYHILRKHSAKRCGCI
In the case of B1, the “role of the stage 2 medium component for neural-, fibroblast- and XEN-specific gene expression” value in the data set with XEN-like cells [4] is “important for inducing neuronal mater and functional genes”.
